# Active and inactive are the calls of the source. The calls are words filed in the database; no cut-off is given here.
# Assays:
# K562 = assay: Cytotoxicity against human K562 cells assessed as reduction in cell viability measured after 3 days by CCK-8 assay; type: functional, cell-based; settings: K562, 72 h
# HeLa [1] = assay: Cytotoxicity against human HeLa cells assessed as reduction in cell viability measured after 3 days by CCK-8 assay; type: functional, cell-based; settings: 72 h
# MDA-MB-231 = assay: Cytotoxicity against human MDA-MB-231 cells assessed as reduction in cell viability measured after 3 days by CCK-8 assay; type: functional, cell-based; settings: MDA-MB-231, 72 h
# CWR22R = assay: Cytotoxicity against human 22Rv1 cells assessed as reduction in cell viability measured after 3 days by CCK-8 assay; type: functional, cell-based; settings: 22Rv1, 72 h
# [2] = target: von Hippel-Lindau disease tumor suppressor/Serine/threonine-protein kinase PLK1 (Homo sapiens) (UniProt P53350+P40337); assay: Protac activity at VHL/PLK1 in human HeLa cells assessed as PLK1 degradation at 500 nM measured after 12 hrs by Western blot analysis; type: cell-based
# Sequence of von Hippel-Lindau disease tumor suppressor/Serine/threonine-protein kinase PLK1 (Homo sapiens) (P40337 whole entry, looked up): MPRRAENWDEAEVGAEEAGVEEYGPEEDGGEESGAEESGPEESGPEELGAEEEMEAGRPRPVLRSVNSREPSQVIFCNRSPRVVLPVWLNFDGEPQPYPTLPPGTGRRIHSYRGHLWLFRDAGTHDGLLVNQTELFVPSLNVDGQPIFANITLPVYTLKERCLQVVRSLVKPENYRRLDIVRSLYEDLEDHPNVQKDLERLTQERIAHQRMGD
# Sequence of von Hippel-Lindau disease tumor suppressor/Serine/threonine-protein kinase PLK1 (Homo sapiens) (P53350 whole entry, looked up): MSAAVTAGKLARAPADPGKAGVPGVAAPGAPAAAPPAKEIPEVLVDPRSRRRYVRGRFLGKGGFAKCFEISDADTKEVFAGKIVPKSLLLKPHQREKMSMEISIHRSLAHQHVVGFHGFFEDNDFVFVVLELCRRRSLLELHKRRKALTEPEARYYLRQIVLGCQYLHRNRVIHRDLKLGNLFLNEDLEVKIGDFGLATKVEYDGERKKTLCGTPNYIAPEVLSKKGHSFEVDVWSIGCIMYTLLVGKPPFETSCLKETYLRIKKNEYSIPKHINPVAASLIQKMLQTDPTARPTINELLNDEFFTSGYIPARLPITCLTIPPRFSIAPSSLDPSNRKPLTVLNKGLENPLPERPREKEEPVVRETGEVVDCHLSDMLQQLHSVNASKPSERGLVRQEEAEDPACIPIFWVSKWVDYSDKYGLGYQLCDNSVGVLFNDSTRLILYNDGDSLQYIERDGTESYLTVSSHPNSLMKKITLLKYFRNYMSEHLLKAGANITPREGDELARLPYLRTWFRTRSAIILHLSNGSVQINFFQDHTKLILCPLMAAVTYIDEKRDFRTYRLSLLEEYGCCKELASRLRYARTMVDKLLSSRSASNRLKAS
# [3] = target: von Hippel-Lindau disease tumor suppressor/Bromodomain-containing protein 4 (Homo sapiens) (UniProt O60885+P40337); assay: Protac activity at VHL/BRD4 in human HeLa cells assessed as BRD4 degradation at 500 nM measured after 12 hrs by Western blot analysis; type: cell-based
# Sequence of von Hippel-Lindau disease tumor suppressor/Bromodomain-containing protein 4 (Homo sapiens) (P40337 whole entry, looked up, other chains not shown): as the sequence (P40337 whole entry, looked up) above
# [4] = target: T1, Protein cereblon/Bromodomain-containing protein 4 (Homo sapiens, UniProt O60885+Q96SW2); assay: Protac activity at CRBN/BRD4 in human HeLa cells assessed as BRD4 degradation at 500 nM measured after 12 hrs by Western blot analysis; type: cell-based
# T1 sequence (Q96SW2 whole entry, looked up, other chains not shown): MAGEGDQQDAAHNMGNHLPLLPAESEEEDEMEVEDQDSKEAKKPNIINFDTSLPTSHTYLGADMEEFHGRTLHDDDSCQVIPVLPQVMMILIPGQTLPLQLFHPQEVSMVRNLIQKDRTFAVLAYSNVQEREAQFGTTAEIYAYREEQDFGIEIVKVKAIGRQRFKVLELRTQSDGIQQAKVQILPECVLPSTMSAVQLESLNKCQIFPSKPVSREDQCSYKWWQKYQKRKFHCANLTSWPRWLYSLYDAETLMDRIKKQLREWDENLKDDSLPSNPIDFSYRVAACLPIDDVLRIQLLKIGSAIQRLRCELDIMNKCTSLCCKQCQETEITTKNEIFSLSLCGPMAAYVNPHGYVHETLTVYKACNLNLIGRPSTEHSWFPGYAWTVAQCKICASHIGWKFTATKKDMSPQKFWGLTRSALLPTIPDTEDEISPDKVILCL
# [5] = target: T2, Protein cereblon/Serine/threonine-protein kinase PLK1 (Homo sapiens, UniProt P53350+Q96SW2); assay: Protac activity at CRBN/PLK1 in human HeLa cells assessed as PLK1 degradation at 500 nM measured after 12 hrs by Western blot analysis; type: cell-based
# T2 sequence (P53350 2-603 limits assumed): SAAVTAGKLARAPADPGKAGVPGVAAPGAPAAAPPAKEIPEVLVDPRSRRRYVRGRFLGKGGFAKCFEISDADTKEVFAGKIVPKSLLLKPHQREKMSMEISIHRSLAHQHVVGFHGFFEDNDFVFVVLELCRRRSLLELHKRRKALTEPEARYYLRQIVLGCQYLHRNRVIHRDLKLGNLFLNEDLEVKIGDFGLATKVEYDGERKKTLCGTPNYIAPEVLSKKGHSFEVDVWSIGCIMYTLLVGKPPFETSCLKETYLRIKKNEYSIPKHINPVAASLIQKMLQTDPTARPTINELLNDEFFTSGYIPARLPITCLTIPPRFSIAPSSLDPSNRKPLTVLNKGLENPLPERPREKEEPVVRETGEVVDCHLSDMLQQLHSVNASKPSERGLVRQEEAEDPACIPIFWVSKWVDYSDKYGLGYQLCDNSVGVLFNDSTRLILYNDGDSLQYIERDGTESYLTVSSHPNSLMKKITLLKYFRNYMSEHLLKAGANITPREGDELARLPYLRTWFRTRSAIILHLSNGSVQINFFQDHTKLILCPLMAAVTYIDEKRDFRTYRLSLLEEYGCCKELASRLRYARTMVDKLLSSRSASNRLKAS
# T2 sequence (Q96SW2 whole entry partner): as the sequence (Q96SW2 whole entry, looked up, other chains not shown) above
# [6] = target: T1, Protein cereblon/Bromodomain-containing protein 4; assay: Protac activity at CRBN/BRD4 in human HeLa cells assessed as BRD4 degradation at 20 nM measured after 24 hrs by Western blot analysis; type: cell-based
# [7] = target: T2, Protein cereblon/Serine/threonine-protein kinase PLK1; assay: Protac activity at CRBN/PLK1 in human 22Rv1 cells assessed as PLK1 degradation at 5 to 10 nM measured after 36 hrs by Western blot analysis; type: cell-based; settings: dose 5-10 nM
# [8] = target: T2, Protein cereblon/Serine/threonine-protein kinase PLK1; assay: Protac activity at CRBN/PLK1 in human 22Rv1 cells assessed as PLK1 degradation at 10 nM measured after 36 hrs by Western blot analysis; type: cell-based
# HeLa [9] = assay: Induction of degradation of PLK1 in human HeLa cells at 500 nM measured after 12 hrs by Western blot analysis; type: cell-based
# HeLa [10] = assay: Induction of degradation of BRD4 in human HeLa cells at 500 nM measured after 12 hrs by Western blot analysis; type: cell-based
Compound,IC50 (K562) [nM],IC50 (HeLa [1]) [nM],IC50 (MDA-MB-231) [nM],IC50 (CWR22R) [nM],Activity [2] [%],Activity [3] [%],Activity [4] [%],Activity [5] [%],Activity [6],Activity [7],Activity [8],Activity (HeLa [9]) [%],Activity (HeLa [10]) [%]
CC[C@@H]1C(=O)N(C)c2cnc(Nc3ccc(C(=O)NC4CCN(CCCCCCCCCC(=O)N[C@H](C(=O)N5C[C@H](O)C[C@H]5C(=O)NCc5ccc(-c6scnc6C)cc5)C(C)(C)C)CC4)cc3OC)nc2N1C1CCCC1,66,52,928,225,8,50,–,–,–,–,–,–,–
CC[C@@H]1C(=O)N(C)c2cnc(Nc3ccc(C(=O)NC4CCN(CCCCCC(=O)N[C@H](C(=O)N5C[C@H](O)C[C@H]5C(=O)NCc5ccc(-c6scnc6C)cc5)C(C)(C)C)CC4)cc3OC)nc2N1C1CCCC1,> 1000,398,> 1000,> 1000,0.3,7,–,–,–,–,–,–,–
CC[C@@H]1C(=O)N(C)c2cnc(Nc3ccc(C(=O)NC4CCN(CCCCCCCCCC(=O)Nc5cccc6c5C(=O)N(C5CCC(=O)NC5=O)C6=O)CC4)cc3OC)nc2N1C1CCCC1 (some centres not stated),133,125,527,63,–,–,93,7,Active,–,–,–,–
CC[C@@H]1C(=O)N(C)c2cnc(Nc3ccc(C(=O)NC4CCN(CCCCCCC(=O)N[C@H](C(=O)N5C[C@H](O)C[C@H]5C(=O)NCc5ccc(-c6scnc6C)cc5)C(C)(C)C)CC4)cc3OC)nc2N1C1CCCC1,> 1000,193,> 1000,> 1000,0,10,–,–,–,–,–,–,–
CC[C@@H]1C(=O)N(C)c2cnc(Nc3ccc(C(=O)NC4CCN(CCCCCCC(=O)Nc5cccc6c5C(=O)N(C5CCC(=O)NC5=O)C6=O)CC4)cc3OC)nc2N1C1CCCC1 (some centres not stated),89,54,489,48,–,–,94,18,Active,–,–,–,–
Cc1ncsc1-c1ccc([C@H](C)NC(=O)[C@@H]2C[C@@H](O)CN2C(=O)[C@@H](NC(=O)COCCCOCCNC(=O)C[C@@H]2N=C(c3ccc(Cl)cc3)c3c(sc(C)c3C)-n3c(C)nnc32)C(C)(C)C)cc1,–,–,–,–,–,–,–,–,–,inactive,–,–,–
Cc1ncsc1-c1ccc(CNC(=O)[C@@H]2C[C@@H](O)CN2C(=O)[C@@H](NC(=O)CCCCCCCCCCNC(=O)c2cc3c(cc2CS(C)(=O)=O)-c2cn(C)c(=O)c4[nH]cc(c24)CN3c2ncc(F)cc2F)C(C)(C)C)cc1,–,–,–,–,–,–,–,–,–,–,inactive,–,–
CC[C@@H]1C(=O)N(C)c2cnc(Nc3ccc(C(=O)NC4CCN(CCCCCCCC(=O)N[C@H](C(=O)N5C[C@H](O)C[C@H]5C(=O)NCc5ccc(-c6scnc6C)cc5)C(C)(C)C)CC4)cc3OC)nc2N1C1CCCC1,527,158,> 1000,> 1000,6,22,–,–,–,–,–,–,–
CC[C@@H]1C(=O)N(C)c2cnc(Nc3ccc(C(=O)NC4CCN(C)CC4)cc3OC)nc2N1C1CCCC1,–,–,–,–,–,–,–,–,–,–,–,0,0

# From ChEMBL document CHEMBL6114972, “Proteolysis targeting chimera of BI-2536 induces potent dual degradation of PLK1 and BET proteins” (Bioorg Med Chem, 2025)
